These results are taken from patent US20240390340A1 (INCYTE CORPORATION, priority 2023, published 2024).

One series addresses KRAS G12D (Homo sapiens, UniProt P01116, G12D). Briefly: GDP-GTP exchange assay (bodipy-GDP/GppNHp, SOS1), KRAS G12D. In kind it is biochemical. Particulars: Table H, column G12D; for compounds isolated as several atropisomers/diastereoisomers the value for the most potent isomer is quoted; read-out: KRAS G12D exchange assay IC50.
For a further series, the target named is KRAS G12V (Homo sapiens, UniProt P01116, G12V). Description: GDP-GTP exchange assay (bodipy-GDP/GppNHp, SOS1), KRAS G12V. In kind it is biochemical. The conditions noted are these: Table H, column G12V; for compounds isolated as several atropisomers/diastereoisomers the value for the most potent isomer is quoted; read-out: KRAS G12V exchange assay IC50.
A further series has as its system Caco-2 cells. Description: Caco2 assay (Papp A-B). In kind it is in vitro ADME. The conditions noted are these: test compound 50 μM, 120 min, 37° C. On the procedure: Caco-2 cells are grown at 37° C. in an atmosphere of 5% CO2 in DMEM growth medium supplemented with 10% (v/v) fetal bovine serum, 1% (v/v) nonessential amino acids, penicillin (100 U/mL), and streptomycin (100 μg/mL). Confluent cell monolayers are subcultured every 7 days or 4 days for Caco-2 by treatment with 0.05% trypsin containing […]. Caco-2 cells are seeded in 96-well Transwell plates. The seeding density for Caco-2 cells is 14,000 cells/well. DMEM growth medium is replaced every other day after seeding. Cell monolayers are used for transport assays between 22 and 25 days for Caco-2 cells.
Cell culture medium is removed and replaced with HBSS. To measure the TEER, the HBSS is added into the donor compartment (apical side) and receiver compartment (basolateral side). The TEER is measured by using a REMS Autosampler to ensure the integrity of the cell monolayers. Caco-2 cell monolayers with TEER values 300 Ω·cm^2 are used for transport experiments. To determine the Papp in the absorptive direction (A-B), solution of test compound (50 μM) in HBSS is added to the donor compartment (apical side), while HBSS solution with 4% BSA is added to the receiver compartment (basolateral side). The apical volume was 0.075 mL, and the basolateral volume is 0.25 mL. The incubation period is 120 min. at 37° C. in an atmosphere of 5% CO2. At the end of the incubation period, samples from the donor and receiver sides are removed and an equal volume of MeCN is added for protein precipitation. The supernatants are collected after centrifugation (3000 rpm, Allegra X-14R Centrifuge from Beckman Coulter, Indianapolis, IN) for LCMS analysis. The permeability value is determined according to the equation:
[formula] • where the flux rate (F, mass/time) is calculated from the slope of cumulative amounts of compound of interest on the receiver side, SA is the surface area of the cell membrane, VD is the donor volume, and MD is the initial amount of the solution in the donor chamber.
The symbol “+” indicates a Caco-2 value of ≤0.5, “++” indicates a Caco-2 value of >0.5 but ≤1; and “+++” indicates a Caco-2 value of >1. “NA” indicates IC50 not available.

Sequence of KRAS G12V (P01116 1-188 isoform P01116-2 G12V): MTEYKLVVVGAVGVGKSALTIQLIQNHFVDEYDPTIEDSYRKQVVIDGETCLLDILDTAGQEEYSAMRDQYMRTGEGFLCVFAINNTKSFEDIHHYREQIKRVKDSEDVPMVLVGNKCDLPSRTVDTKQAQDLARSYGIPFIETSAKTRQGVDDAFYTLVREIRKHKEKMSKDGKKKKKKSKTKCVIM
Sequence of KRAS G12D (P01116 1-188 isoform P01116-2 G12D): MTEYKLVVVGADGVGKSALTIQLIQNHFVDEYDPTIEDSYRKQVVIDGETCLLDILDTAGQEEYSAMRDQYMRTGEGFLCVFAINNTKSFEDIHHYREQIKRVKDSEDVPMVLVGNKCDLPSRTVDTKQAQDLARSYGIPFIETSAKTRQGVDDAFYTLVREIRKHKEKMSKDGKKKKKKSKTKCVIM

As for `Cc1nc2c(F)c(-c3cccc(Cl)c3Cl)c(CCC#N)cc2c2c1cc([C@H]1C[C@H](Oc3ccnc(OC(F)F)c3)CN1C(=O)C1CC1)n2[C@H]1[C@H]2CN[C@@H]1C2` [Example 40, 3-(1-((1R,4R,5S)-2-Azabicyclo[2.1.1]hexan-5-yl)-2-((2R,4S)-1-(cyclopropanecarbonyl)-4-((2-(difluoromethoxy)pyridin-4-yl)oxy)pyrrolidin-2-yl)-7-(2,3-dichlorophenyl)-6-fluoro-4-methyl-1H-pyrrolo[3,2-c]quinolin-8-yl)propanenitrile], the IC50 at KRAS G12D and on KRAS G12V was not above 100 nM throughout. Besides, in the series with Caco-2 cells, the Caco-2 result is reported as “+ (a Caco-2 value of ≤0.5)”.

On to `Cc1nc2c(F)c(-c3cccc(Cl)c3Cl)c(CCC#N)cc2c2c1cc([C@H]1C[C@H](Oc3cccnc3OC(F)F)CN1C(=O)C1CC1)n2[C@H]1[C@H]2CN[C@@H]1C2` [Example 37, 3-(1-((1R,4R,5S)-2-Azabicyclo[2.1.1]hexan-5-yl)-2-((2R,4S)-1-(cyclopropanecarbonyl)-4-((2-(difluoromethoxy)pyridin-3-yl)oxy)pyrrolidin-2-yl)-7-(2,3-dichlorophenyl)-6-fluoro-4-methyl-1H-pyrrolo[3,2-c]quinolin-8-yl)propanenitrile], for which the IC50 on KRAS G12D and at KRAS G12V was not above 100 nM each time. For the same molecule, the Caco-2 result in the series on Caco-2 cells was “+ (a Caco-2 value of ≤0.5)”.

Turning to `Cc1nc2c(F)c(-c3cccc(Cl)c3Cl)c(CCC#N)cc2c2c1cc([C@H]1C[C@H](Oc3ccccn3)CN1C(=O)C1CC1)n2[C@H]1[C@H]2CN[C@@H]1C2` [Example 5, 3-(1-((1R,4R,5S)-2-Azabicyclo[2.1.1]hexan-5-yl)-2-((2R,4S)-1-(cyclopropanecarbonyl)-4-(pyridin-2-yloxy)pyrrolidin-2-yl)-7-(2,3-dichlorophenyl)-6-fluoro-4-methyl-1H-pyrrolo[3,2-c]quinolin-8-yl)propanenitrile], the IC50 on KRAS G12D and on KRAS G12V was not above 100 nM throughout. Moreover, in the series on Caco-2 cells, the Caco-2 entry was “+++ (a Caco-2 value of >1)”.

Take `COC1CCC(O[C@H]2C[C@H](c3cc4c(C)nc5c(F)c(-c6cccc(Cl)c6Cl)c(CCC#N)cc5c4n3[C@H]3[C@H]4CN[C@@H]3C4)N(C(=O)C3CC3)C2)C1` (stereo partly drawn) [Example 23]: the IC50 at KRAS G12D and on KRAS G12V was not above 100 nM each time. Moreover, the Caco-2 entry with Caco-2 cells is reported as “++ (a Caco-2 value of >0.5 but ≤1)”.

Regarding `COc1ncccc1CO[C@H]1C[C@H](c2cc3c(C)nc4c(F)c(-c5cccc(Cl)c5Cl)c(CCC#N)cc4c3n2[C@H]2[C@H]3CN[C@@H]2C3)N(C(=O)C2CC2)C1` [Example 27], the IC50 on KRAS G12D and on KRAS G12V was not above 100 nM in each case. Further, the Caco-2 result in the series on Caco-2 cells is “++ (a Caco-2 value of >0.5 but ≤1)”.

As to `COc1cc(O[C@H]2C[C@H](c3cc4c([C@@H](C)O)nc5c(F)c(-c6cccc(Cl)c6Cl)c(CCC#N)cc5c4n3[C@H]3[C@H]4CN[C@@H]3C4)N(C(=O)C3(C)CC3)[C@@H]2C)c(F)cn1` [Example 52, 3-(1-((1R,4R,5S)-2-Azabicyclo[2.1.1]hexan-5-yl)-7-(2,3-dichlorophenyl)-6-fluoro-2-((2R,4S,5R)-4-((5-fluoro-2-methoxypyridin-4-yl)oxy)-5-methyl-1-(1-methylcyclopropane-1-carbonyl)pyrrolidin-2-yl)-4-((R)-1-hydroxyethyl)-1H-pyrrolo[3,2-c]quinolin-8-yl)propanenitrile], the IC50 on KRAS G12D and at KRAS G12V was not above 100 nM throughout. The Caco-2 entry in the series with Caco-2 cells was “+ (a Caco-2 value of ≤0.5)”.

Turning to `Cc1nc2c(F)c(-c3cccc(Cl)c3Cl)c(CCC#N)cc2c2c1cc([C@H]1C[C@H](Oc3cccc(N4CC(F)C4)n3)CN1C(=O)C1CC1)n2[C@H]1[C@H]2CN[C@@H]1C2` [Example 65, 3-(1-((1R,4R,5S)-2-Azabicyclo[2.1.1]hexan-5-yl)-2-((2R,4S)-1-(cyclopropanecarbonyl)-4-((6-(3-fluoroazetidin-1-yl)pyridin-2-yl)oxy)pyrrolidin-2-yl)-7-(2,3-dichlorophenyl)-6-fluoro-4-methyl-1H-pyrrolo[3,2-c]quinolin-8-yl)propanenitrile], the IC50 on KRAS G12D and at KRAS G12V was not above 100 nM in each case. Moreover, in the series with Caco-2 cells, the Caco-2 result is recorded as “+ (a Caco-2 value of ≤0.5)”.

For the molecule `Cc1cc(CO[C@H]2C[C@H](c3cc4c(C)nc5c(F)c(-c6cccc(Cl)c6Cl)c(CCC#N)cc5c4n3[C@H]3[C@H]4CN[C@@H]3C4)N(C(=O)C3CC3)C2)no1` [Example 7], the half-maximal inhibitory concentration (IC50) at KRAS G12D and on KRAS G12V was not above 100 nM throughout. Further, the Caco-2 entry with Caco-2 cells is listed as “++ (a Caco-2 value of >0.5 but ≤1)”.

For the molecule `Cc1nc2c(F)c(-c3cccc(Cl)c3Cl)c(CCC#N)cc2c2c1cc([C@H]1C[C@H](OC3CCOCC3)CN1C(=O)C1CC1)n2[C@H]1[C@H]2CN[C@@H]1C2` [Example 22], the IC50 at KRAS G12D and on KRAS G12V was not above 100 nM throughout. Besides, the Caco-2 entry in the series with Caco-2 cells is “+ (a Caco-2 value of ≤0.5)”.

For `Cc1nc2c(F)c(-c3cccc(Cl)c3Cl)c(CCC#N)cc2c2c1cc([C@H]1C[C@H](OCc3ccccc3C(F)F)CN1C(=O)C1CC1)n2[C@H]1[C@H]2CN[C@@H]1C2` [Example 18], the IC50 at KRAS G12D and on KRAS G12V was not above 100 nM in each case. Also, in the series with Caco-2 cells, the Caco-2 entry is given as “+ (a Caco-2 value of ≤0.5)”.

`C[C@@H]1[C@@H](Oc2cc(F)ccn2)C[C@H](c2cc3c([C@@H](C)O)nc4c(F)c(-c5cccc(Cl)c5Cl)c(CCC#N)cc4c3n2[C@H]2[C@H]3CN[C@@H]2C3)N1C(=O)C1CC1` [Example 63, 3-(1-((1R,4R,5S)-2-Azabicyclo[2.1.1]hexan-5-yl)-2-((2R,4S,5R)-1-(cyclopropanecarbonyl)-4-((4-fluoropyridin-2-yl)oxy)-5-methylpyrrolidin-2-yl)-7-(2,3-dichlorophenyl)-6-fluoro-4-((R)-1-hydroxyethyl)-1H-pyrrolo[3,2-c]quinolin-8-yl)propanenitrile]: the IC50 at KRAS G12D and at KRAS G12V was not above 100 nM throughout. In addition, in the series with Caco-2 cells, the Caco-2 result is given as “++ (a Caco-2 value of >0.5 but ≤1)”.

For the molecule `Cc1ccccc1O[C@H]1C[C@H](c2cc3c(C)nc4c(F)c(-c5cccc(Cl)c5Cl)c(CCC#N)cc4c3n2[C@H]2[C@H]3CN[C@@H]2C3)N(C(=O)C2CC2)C1` [Example 28, 3-(1-((1R,4R,5S)-2-azabicyclo[2.1.1]hexan-5-yl)-2-((2R,4S)-1-(cyclopropanecarbonyl)-4-(o-tolyloxy)pyrrolidin-2-yl)-7-(2,3-dichlorophenyl)-6-fluoro-4-methyl-1H-pyrrolo[3,2-c]quinolin-8-yl)propanenitrile], the IC50 at KRAS G12D and at KRAS G12V was not above 100 nM in each case. Also, in the series on Caco-2 cells, the Caco-2 result is given as “++ (a Caco-2 value of >0.5 but ≤1)”.

Regarding `COc1nccc(O[C@H]2C[C@H](c3cc4c(C)nc5c(F)c(-c6cccc(Cl)c6Cl)c(CCC#N)cc5c4n3[C@H]3[C@H]4CN[C@@H]3C4)N(C(=O)C3CC3)C2)n1` [Example 42, 3-(1-((1R,4R,5S)-2-Azabicyclo[2.1.1]hexan-5-yl)-2-((2R,4S)-1-(cyclopropanecarbonyl)-4-((2-methoxypyrimidin-4-yl)oxy)pyrrolidin-2-yl)-7-(2,3-dichlorophenyl)-6-fluoro-4-methyl-1H-pyrrolo[3,2-c]quinolin-8-yl)propanenitrile], the IC50 at KRAS G12D and on KRAS G12V was not above 100 nM each time. Moreover, in the series with Caco-2 cells, the Caco-2 entry is “+ (a Caco-2 value of ≤0.5)”.

`Cc1nc2c(F)c(-c3cccc(Cl)c3Cl)c(CCC#N)cc2c2c1cc([C@H]1C[C@H](OCc3ccnn3C(F)F)CN1C(=O)C1CC1)n2[C@H]1[C@H]2CN[C@@H]1C2` [Example 8]: the IC50 at KRAS G12D and at KRAS G12V was not above 100 nM each time. In the series on Caco-2 cells, the Caco-2 result is “+ (a Caco-2 value of ≤0.5)”.

The term IC50 denotes the midpoint of a concentration-inhibition curve.
